Data on 6 compounds can be found in patent publication US6596271B2, “Insect control method with genetically engineered biopesticides” (priority 1996, dated 2003).

Marks after values point to notes of the source that are not given here.

Data set [1] has as its system neonate larvae of H. virescens. As to the kind of experiment: Time-response of neonate larvae to NPVs with low concentrations of classical insecticides (droplet feeding, treated vials). In kind it is in vivo, Heliothis virescens. Conditions: 2000 PIBs and/or LC10-LC20 (24 h) insecticide. An excerpt:
For example, two of the compounds studied were pyrethroids, […]. In our study we found a subadditive response when low rates of allethrin or cypermethrin were combined with wild-type AcNPV.

For data set [2], the system named is neonate larvae of H. virescens. In kind it is in vivo, Heliothis virescens. Conditions: at the μg insecticide/vial of Table 4. An excerpt: As indicated previously, these studies have emphasized the effects of combinations of viral and chemical insecticides on LT50, but the same approaches could be applied to dose as well as time. […] In practice a variety of factors would influence the rates used, including the cost and availability of the biological and chemical pesticide, environmental concerns, level of resistant populations in the field, and other pest management considerations.
Two of the compounds studied were pyrethroids, allethrin (Type I pyrethroid) or cypermethrin (Type II pyrethroid). In our study we found a subadditive response when low rates of allethrin or cypermethrin were combined with wild-type AcNPV.

For the compound `C=CCC1=C(C)C(OC(=O)C2C(C=C(C)C)C2(C)C)CC1=O` (centres unmarked) [Allethrin], in data set [1], the “Actual Kill Time (LT50, h)” value worked out at 132 h; the “LT10 (h; 95% CL)” value is recorded as 17.3 (11.5-22.5) h; the “LT50 (h; 95% CL)” value is given as 132 (106-185) h; the “LT90 (h; 95% CL)” value is 1000 (552-2680) h. For the same compound, the “% Mortality at 24 hours” value in data set [2] turned out to be 14.0%.
Regarding `CC1(C)C(C=C(Cl)Cl)C1C(=O)OC(C#N)c1cccc(Oc2ccccc2)c1` (centres unmarked) [Cypermethrin], in data set [1], the “Actual Kill Time (LT50, h)” value came out at 124 h; the “LT10 (h; 95% CL)” value is on record as 17.1 (7.99-24.8) h; the “LT50 (h; 95% CL)” value was 124 (97.5-195) h; the “LT90 (h; 95% CL)” value is given as 902 (436-4190) h. Further, in data set [2], the “% Mortality at 24 hours” value was 11.8%.
The matching figures for `Clc1ccc(C(c2ccc(Cl)cc2)C(Cl)(Cl)Cl)cc1` [DDT]: 96.7 h, 12.6 (3.90-23.8) h, 96.7 (73.5-165) h, 740 (318-10320) h and 18.8%.
The matching figures for `O=S1OCC2C(CO1)C1(Cl)C(Cl)=C(Cl)C2(Cl)C1(Cl)Cl` (centres unmarked) [Endosulfan]: 73.3 h, 10.4 (3.75-17.3) h, 73.3 (61.0-90.3) h, 514 (296-1580) h and 17.5%.
With `CNC(=O)ON=C(C)SC` [Methomyl], in data set [1], the “Actual Kill Time (LT50, h)” value is given as 358 h; the “LT10 (h; 95% CL)” value is reported as 4.84 (0.12-13.1) h; the “LT50 (h; 95% CL)” value is 358 (182-4070) h; the “LT90 (h; 95% CL)” value is 26563 (2870-1.25 × 10^8) h. In addition, in data set [2], the “% Mortality at 24 hours” value was 20.8%.
As for `CCCSP(=O)(OCC)Oc1ccc(Br)cc1Cl` (centres unmarked) [Profenofos], in data set [1], the “Actual Kill Time (LT50, h)” value was 401 h; the “LT10 (h; 95% CL)” value was 8.10 (2.61-17.5) h; the “LT50 (h; 95% CL)” value was 401 (260-676) h. Further, the “% Mortality at 24 hours” value in data set [2] is given as 16.3%.
